# US20210309658A1, “ARYL COMPOUNDS FOR THE TREATMENT AND PROPHYLAXIS OF BACTERIAL INFECTION” (Hoffmann-La Roche Inc., priority 2018, published 2021)
# How the values were obtained:
# Type in all cases: cell-based
# [1] = Cytotoxicity assay (HepG2, CellTiter-Blue); conditions: human; HepG2 cells, 3 days treatment; * = detection limit
# Description: The cytotoxicity of compounds of present invention was assessed by HepG2 assay. HepG2 cells (ATCC HB-8065™) were seeded into 96-well plates (1.2×10^4 cells per well) and treated with compounds for 3 days, cell viability was measured at day 3 post compound treatment using the CellTiter-Blue® Cell Viability Assay (Promega, Cat. No. G8082). 20 μL of Cell titer blue buffer were added to each well of the cells, incubated for 3 hours at 37° C., and the fluorescence value was measured by a plate reader (Molecular Device SpectraMax M2). The CC50 value of each compound is plotted with GraphPad Prism using four parameter logistic equation.
# [2] = test system: K. pneumoniae (ATCC10031); assay: 50% growth inhibitory concentration (IC50) determination assay, K. pneumoniae; conditions: Klebsiella pneumoniae, ATCC10031; growth inhibition, Iso-Sensitest broth, OD 600 nm over 16 h; * = detection limit; read-out: IC50 (μM) K. pneumoniae ATCC10031
# Description: (§1) The in vitro antimicrobial activity of the compounds against E. coli (BW25113, obtained from Coli Genetic Stock Center, #7636) and K. pneumoniae (ATCC10031) was determined according to the following procedure:
# (§2) The assay used a 10-points Iso-Sensitest broth medium to measure quantitatively the in vitro activity of the compounds against E. coli BW25113 and K. pneumoniae ATCC 10031.
# (§3) Stock compounds in DMSO were serially two-fold diluted (range from 50 to 0.097 μM final concentration) in 384 wells microtiter plates and inoculated with 49 μL the bacterial suspension in Iso-Sensitest broth medium to have a final cell concentration of ˜5×10^5 CFU/mL in a final volume/well of 50 μL/well. Microtiter plates were incubated at 35±2° C.
# (§4) Bacterial cell growth was determined with the measurement of optical density at λ=600 nm each 20 minutes over a time course of 16 h.
# (§5) Growth inhibition was calculated during the logarithmic growth of the bacterial cells with determination of the concentration inhibiting 50% (IC50) of the growth.
# [3] = test system: E. coli (BW25113); assay: 50% growth inhibitory concentration (IC50) determination assay, E. coli; conditions: Escherichia coli, BW25113; growth inhibition, Iso-Sensitest broth, OD 600 nm over 16 h; read-out: IC50 (μM) E. coli K12 BW25113
# Description: as §1, §2, §3, §4, §5
# [4] = test system: E. coli (ATCC 25922); assay: Minimal Inhibitory Concentration (MIC) assay; conditions: Escherichia coli, ATCC25922; CAMHB, 20 hours at 35° C.; read-out: MIC (μg/mL) E. coli ATCC 25922
# Description: The in vitro potency of compounds to inhibit E. coli (ATCC 25922) growth was assessed by MIC (Minimal Inhibitory Concentration) assay. Samples were prepared from 10 mM DMSO stock solutions. After serial 2-fold dilution in DMSO in a master plate (Greiner, Cat No: 651201), 180 μL sterile distilled water was added to 20 μL each aliquot of the samples. Then 10 μL diluted compounds were transferred into a new assay plate (Costar, 3599).
# The growth medium […] Mueller Hinton Broth (CAMHB) was prepared by adding the 20 mg per liter CaCl2 and 20 mg per liter MgCl2 into the MHB medium (Jianglai Company, sterilized).
# Vials of each of the test microorganisms were maintained frozen in the vapor phase of a liquid nitrogen freezer. Took out the bacteria E. coli ATCC 25922 (KWIKSTIK, 0335K) from liquid nitrogen freezer, thawed it in room temperature, and diluted the bacterial in the CAMHB medium to achieve a final inoculum of 5×10^5 CFU/mL, 90 μL CAMHB with bacteria was dispensed to the assay plate and pipetted 5 times.
# Then the assay plates were incubated for 20 hours at 35° C. in ambient air. Following incubation, the MIC (μg/mL), the lowest concentration of drug that inhibits visible growth of the microorganism was read and recorded throw the microscope.
smiles,measurement,setting,value
"CNc1cc(F)cc2c1[nH]c1ncc(-c3cncc(C#N)c3)c(-n3cc(CN)c(C(F)(F)F)n3)c12 [Example 1.14, 5-[4-[4-(Aminomethyl)-3-(trifluoromethyl)pyrazol-1-yl]-6-fluoro-8-(methylamino)-9H-pyrido[2,3-b]indol-3-yl]pyridine-3-carbonitrile]",CC50 at 3 days,[1],13.3 µM
"CCNc1cc(F)cc2c1[nH]c1ncc(-c3cncc(N)c3)c(-n3ccc(C(F)(F)F)n3)c12 [Example 1.37, 3-(5-Amino-3-pyridyl)-N-ethyl-6-fluoro-4-[3-(trifluoromethyl)pyrazol-1-yl]-9H-pyrido[2,3-b]indol-8-amine]",IC50,[2],≤ 0.098 µM
same,CC50 at 3 days,[1],11.1 µM
same,IC50,[3],1.32 µM
"CCNc1cc(F)cc2c1[nH]c1ncc(-c3cnc(OCC(C)(C)C(=O)O)nc3)c(-n3ccc(C(F)(F)F)n3)c12 [Example 2.03, 3-[5-[8-(Ethylamino)-6-fluoro-4-[3-(trifluoromethyl)pyrazol-1-yl]-9H-pyrido[2,3-b]indol-3-yl]pyrimidin-2-yl]oxy-2,2-dimethyl-propanoic acid]",MIC,[4],0.653 µg/mL
same,CC50 at 3 days,[1],20.7 µM
"CCNc1cc(F)cc2c1[nH]c1ncc(-c3cnc(OC)nc3)c(-n3ncc4c3CNC4)c12 [Example 1.21, 4-(5,6-Dihydro-4H-pyrrolo[3,4-c]pyrazol-1-yl)-N-ethyl-6-fluoro-3-(2-methoxypyrimidin-5-yl)-9H-pyrido[2,3-b]indol-8-amine]",CC50 at 3 days,[1],30.5 µM
"CCNc1cc(F)cc2c1[nH]c1ncc(-c3cnc4cccnc4c3)c(-n3ccc(C(F)(F)F)n3)c12 [Example 1.11, N-Ethyl-6-fluoro-3-(1,5-naphthyridin-3-yl)-4-[3-(trifluoromethyl)pyrazol-1-yl]-9H-pyrido[2,3-b]indol-8-amine]",IC50,[2],0.208 µM
same,MIC,[4],0.288 µg/mL
same,IC50,[3],0.803 µM
"CCNc1cc(F)cc2c1[nH]c1ncc(-c3cncc(C#N)c3)c(-n3nc(C(F)(F)F)c4c3CNC4)c12 [Example 1.34, 5-[8-(Ethylamino)-6-fluoro-4-[3-(trifluoromethyl)-5,6-dihydro-4H-pyrrolo[3,4-c]pyrazol-1-yl]-9H-pyrido[2,3-b]indol-3-yl]pyridine-3-carbonitrile]",IC50,[2],≤ 0.098 µM
same,MIC,[4],0.727 µg/mL
same,CC50 at 3 days,[1],14.1 µM
same,IC50,[3],2 µM
"CNc1cc(F)cc2c1[nH]c1ncc(-c3cncc(C#N)c3)c(-n3cc(C#N)cn3)c12 [Example 1.09, 5-[4-(4-Cyanopyrazol-1-yl)-6-fluoro-8-(methylamino)-9H-pyrido[2,3-b]indol-3-yl]pyridine-3-carbonitrile]",IC50,[2],≤ 0.098 µM
same,MIC,[4],0.153 µg/mL
same,CC50 at 3 days,[1],14.6 µM
same,IC50,[3],0.346 µM
"CCNc1cc(F)cc2c1[nH]c1ncc(-c3cnc(OC)nc3)c(-n3cc(CN)c(C(F)(F)F)n3)c12 [Example 1.27, 4-[4-(Aminomethyl)-3-(trifluoromethyl)pyrazol-1-yl]-N-ethyl-6-fluoro-3-(2-methoxypyrimidin-5-yl)-9H-pyrido[2,3-b]indol-8-amine]",IC50,[2],≤ 0.098 µM
same,MIC,[4],0.417 µg/mL
same,IC50,[3],0.462 µM
"CCNc1cc(F)c(F)c2c1[nH]c1ncc(-c3cncc(C#N)c3)c(-n3ccc(C(F)(F)F)n3)c12 [Example 1.28, 5-[8-(Ethylamino)-5,6-difluoro-4-[3-(trifluoromethyl)pyrazol-1-yl]-9H-pyrido[2,3-b]indol-3-yl]pyridine-3-carbonitrile]",IC50,[2],0.199 µM
same,MIC,[4],0.7 µg/mL
same,IC50,[3],0.8 µM
"CCNc1cc(F)cc2c1[nH]c1ncc(-c3cnc(N)nc3)c(-n3ccc(C(F)(F)F)n3)c12 [Example 1.06, 3-(2-Aminopyrimidin-5-yl)-N-ethyl-6-fluoro-4-[3-(trifluoromethyl)pyrazol-1-yl]-9H-pyrido[2,3-b]indol-8-amine]",IC50,[2],≤ 0.098 µM
same,MIC,[4],0.267 µg/mL
same,IC50,[3],0.495 µM
"CCNc1cc(F)cc2c1[nH]c1ncc(-c3cnc(OC)nc3)c(-n3nc(C(F)(F)F)c4c3CNC4)c12 [Example 1.35, N-Ethyl-6-fluoro-3-(2-methoxypyrimidin-5-yl)-4-[3-(trifluoromethyl)-5,6-dihydro-4H-pyrrolo[3,4-c]pyrazol-1-yl]-9H-pyrido[2,3-b]indol-8-amine]",MIC,[4],0.601 µg/mL
same,CC50 at 3 days,[1],58 µM
"CCNc1cc(F)cc2c1[nH]c1ncc(-c3cncnc3)c(-n3ccc(C(F)(F)F)n3)c12 [Example 1.12, N-Ethyl-6-fluoro-3-pyrimidin-5-yl-4-[3-(trifluoromethyl)pyrazol-1-yl]-9H-pyrido[2,3-b]indol-8-amine]",IC50,[2],≤ 0.098 µM
same,MIC,[4],0.259 µg/mL
same,IC50,[3],0.536 µM
"CCNc1cc(F)cc2c1[nH]c1ncc(-c3cnc(C(N)=O)nc3)c(-n3ccc(C(F)(F)F)n3)c12 [Example 3.04, 5-[8-(Ethylamino)-6-fluoro-4-[3-(trifluoromethyl)pyrazol-1-yl]-9H-pyrido[2,3-b]indol-3-yl]pyrimidine-2-carboxamide]",IC50,[2],≤ 0.098 µM
same,MIC,[4],0.142 µg/mL
same,CC50 at 3 days,[1],20.9 µM
same,IC50,[3],0.204 µM
"CCNc1cc(F)cc2c1[nH]c1ncc(-c3cncc(C(=O)NOC)c3)c(-n3ccc(C(F)(F)F)n3)c12 [Example 3.03, 5-[8-(Ethylamino)-6-fluoro-4-[3-(trifluoromethyl)pyrazol-1-yl]-9H-pyrido[2,3-b]indol-3-yl]-N-methoxy-pyridine-3-carboxamide]",IC50,[2],≤ 0.098 µM
same,CC50 at 3 days,[1],13 µM
same,IC50,[3],0.775 µM
"CCNc1cc(F)cc2c1[nH]c1ncc(-c3cncc(C#N)c3)c(-n3ccc(C#N)n3)c12 [Example 1.05, 5-[4-(3-Cyanopyrazol-1-yl)-8-(ethylamino)-6-fluoro-9H-pyrido[2,3-b]indol-3-yl]pyridine-3-carbonitrile]",IC50,[2],≤ 0.098 µM
same,MIC,[4],0.314 µg/mL
same,IC50,[3],0.701 µM
"CCNc1cc(F)c(F)c2c1[nH]c1ncc(-c3cnc(OC)nc3)c(-n3ccc(C(F)(F)F)n3)c12 [Example 1.29, N-Ethyl-5,6-difluoro-3-(2-methoxypyrimidin-5-yl)-4-[3-(trifluoromethyl)pyrazol-1-yl]-9H-pyrido[2,3-b]indol-8-amine]",IC50,[2],0.175 µM
same,MIC,[4],0.354 µg/mL
same,IC50,[3],1.05 µM
"CNc1cc(F)cc2c1[nH]c1ncc(-c3cnc(OC)nc3)c(-n3nc(C#N)c4c3CNC4)c12 [Example 1.38, 1-[6-Fluoro-3-(2-methoxypyrimidin-5-yl)-8-(methylamino)-9H-pyrido[2,3-b]indol-4-yl]-5,6-dihydro-4H-pyrrolo[3,4-c]pyrazole-3-carbonitrile]",CC50 at 3 days,[1],11 µM
"CCNc1cc(F)cc2c1[nH]c1ncc(-c3cncc(C(=O)NC)c3)c(-n3ccc(C(F)(F)F)n3)c12 [Example 1.43, 5-[8-(Ethylamino)-6-fluoro-4-[3-(trifluoromethyl)pyrazol-1-yl]-9H-pyrido[2,3-b]indol-3-yl]-N-methyl-pyridine-3-carboxamide]",IC50,[2],≤ 0.098 µM
same,CC50 at 3 days,[1],11.1 µM
same,IC50,[3],0.796 µM
"CCNc1cc(F)cc2c1[nH]c1ncc(-c3cncc(C#N)c3)c(-n3cc(C(F)(F)F)cn3)c12 [Example 1.03, 5-[8-(Ethylamino)-6-fluoro-4-[4-(trifluoromethyl)pyrazol-1-yl]-9H-pyrido[2,3-b]indol-3-yl]pyridine-3-carbonitrile]",IC50,[2],0.206 µM
same,MIC,[4],0.679 µg/mL
same,IC50,[3],1.61 µM
"CCNc1cc(F)cc2c1[nH]c1ncc(-c3cnc(OC)nc3)c(-n3ccc(C(F)(F)F)n3)c12 [Example 1.04, N-Ethyl-6-fluoro-3-(2-methoxypyrimidin-5-yl)-4-[3-(trifluoromethyl)pyrazol-1-yl]-9H-pyrido[2,3-b]indol-8-amine]",IC50,[2],0.13 µM
same,MIC,[4],0.552 µg/mL
same,IC50,[3],1.56 µM
